Experimental findings from patent US9763961B2, “Compositions that modulate the activity of estrogen receptors and estrogen-related receptors and methods for use” (CITY OF HOPE, priority 2005, dated 2017) are described below.

“Also recorded” adds a separate entry of the source.

For assay [1], the target named is T1, aromatase in MCF-7 aro cells (Homo sapiens, UniProt P11511).
T1 construct: expressed in transfected cells
T1 sequence (P11511 1-503): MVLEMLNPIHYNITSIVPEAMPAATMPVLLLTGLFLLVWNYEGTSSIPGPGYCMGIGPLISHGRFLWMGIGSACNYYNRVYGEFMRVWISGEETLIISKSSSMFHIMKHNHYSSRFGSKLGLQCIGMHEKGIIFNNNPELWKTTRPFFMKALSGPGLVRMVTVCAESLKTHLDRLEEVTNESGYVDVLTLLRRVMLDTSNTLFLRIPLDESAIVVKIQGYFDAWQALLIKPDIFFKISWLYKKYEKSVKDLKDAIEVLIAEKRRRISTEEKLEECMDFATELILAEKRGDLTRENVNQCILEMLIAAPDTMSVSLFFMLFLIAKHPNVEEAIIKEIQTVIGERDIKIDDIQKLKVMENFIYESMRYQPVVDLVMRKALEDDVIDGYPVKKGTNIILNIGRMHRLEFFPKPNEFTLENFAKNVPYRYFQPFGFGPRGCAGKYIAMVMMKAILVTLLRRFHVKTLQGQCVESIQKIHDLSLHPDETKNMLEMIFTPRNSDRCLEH
Put plainly: In-cell aromatase assay ([3H] H2O release) in MCF-7 aro cells. It counts as cell-based. The following applies: 10 μM, 24 h, FIG. 6B. On the procedure: (§1) To evaluate the effect of chalcones on aromatase activity, we performed both in vitro assay and in-cell assay with chalcones. […] In addition, MCF-7 aro cells, which are stable aromatase-expressing breast cancer cell line, were incubated with chalcones.
(§2) Referring to FIG. 6, the effect of Compound No. 1-9 on aromatase activity was investigated by both in vitro inhibition assay (A) and in-cell aromatase assay (B; MCF-7 aro cells, C; HepG2 cells, D; SK-BR-3 cells). Referring to FIG. 6A, aromatase inhibition study with Compound No. 1-9 was performed on a human placental microsomal aromatase preparation using the assay procedures described in (9). Referring to FIG. 6B, MCF-7 aro cells, which are stable aromatase-expressing cell line generated in our laboratory (10), were incubated with 10 μM of Compound No. 1-9. After 24 h incubation, aromatase activity was measured by [3H] H20 release method. HepG2 cells, as shown in FIG. 6C and SK-BR-3 cells as shown in FIG. 6D were also incubated with Compound No. 1-9 for 24 h, and aromatase activities were measured. Values represent the mean±SD.

The target in another assay is T2, human ERRα-1 (Homo sapiens, UniProt P11474).
T2 construct: expressed in transfected cells; host or cells: HeLa
T2 sequence (P11474 1-423): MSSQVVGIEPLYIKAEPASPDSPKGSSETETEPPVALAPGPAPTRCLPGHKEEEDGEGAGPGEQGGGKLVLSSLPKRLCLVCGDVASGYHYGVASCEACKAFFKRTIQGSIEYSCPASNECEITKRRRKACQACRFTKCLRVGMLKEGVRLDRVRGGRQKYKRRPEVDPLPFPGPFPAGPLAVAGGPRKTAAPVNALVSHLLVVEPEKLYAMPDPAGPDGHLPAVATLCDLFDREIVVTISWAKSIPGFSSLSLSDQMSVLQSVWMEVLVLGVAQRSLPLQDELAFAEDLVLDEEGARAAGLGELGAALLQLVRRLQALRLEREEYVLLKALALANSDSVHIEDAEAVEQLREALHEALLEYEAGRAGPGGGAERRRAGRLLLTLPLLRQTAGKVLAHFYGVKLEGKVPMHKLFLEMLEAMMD
Put plainly: Transient transfection luciferase assay, full length human ERRα with SF1-SV40-Luc reporter in HeLa cells. The following applies: for Antagonism of constitutive activity of ERRα (in words) / IC50: HeLa cells; for Antagonism of constitutive activity of ERRα (in words): SF1 binding site reporter, FIG. 1; for IC50: pSG5-ERRα, 24 h, mean ± SD. It counts as cell-based. On the procedure: HeLa cells were cultured in MEM Earle's salts medium supplemented with 5% charcoal/dextran-treated fetal bovine serum. Cells were then divided and cultured in 6-well plates until 80% confluence was achieved. The cells were next transfected with 4 μg Lipofectin. An equal amount of total DNA was used in all transfections by including appropriate amounts of the empty vector, pSG5, in addition to specific amounts of pSG5-ERRα and luciferase reporter plasmids (ERRE (ERRα recognizes an ERE half site)-containing reporter and aromatase promoter I.3-containing reporter). Following an overnight incubation, the medium containing Lipofectin and DNA was removed, and the cells cultured in a growth medium containing 5% charcoal/dextran-treated fetal bovine serum with or without ligands. After a 24-hour incubation, the cells was harvested from the plates by scraping, and the luciferase activities in the cell lysates (with the same amounts of protein) was measured according to the manufacturer's instructions (Promega). All experiments were performed in triplicate.
To evaluate the functional significance of the interaction of chalcones with ERRα, we incubated these compounds with HeLa cells which were transiently transfected with human ERRα expression plasmid and a luciferase reporter plasmid containing SF1 binding site. […] In order to confirm the results above, HeLa cells were transiently transfected with GAL4-human ERRα LBD fusion expression plasmid and a luciferase reporter plasmid containing GAL4 binding site. […] Most of the compounds, however, have similar IC50 value, and have a similar potency.
Referring to FIG. 1, HeLa cells were cotransfected with pSG5-ERRα (0.5 μg) and luciferase reporter plasmid containing SF1 binding site and SV40 promoter (0.25 μg). The transfected cells were incubated with Compound No. 1-9 for 24 h. After cells were washed with 1× PBS, luciferase activity was measured. Values represent the mean±SD.

The target of assay [2] is T3, human placental microsomal aromatase (Homo sapiens, UniProt P11511).
T3 construct: performed on a human placental microsomal aromatase preparation; from tissue; host or cells: human placenta, microsomes
T3 sequence (P11511 1-503): T1 sequence (P11511 1-503)
Put plainly: In vitro aromatase inhibition assay on human placental microsomal aromatase preparation. It counts as biochemical. Conditions: increasing concentrations (200 pM-200 mM), FIG. 6A. On the procedure: as §1, §2

Another assay has as its target T4, ERRα (Homo sapiens, UniProt P11474).
T4 sequence (P11474 1-423): T2 sequence (P11474 1-423)
As to the kind of experiment: Competitive [3H] genistein binding whole cell assay in ERRα-positive SK-BR-3 cells. Also on record: endogenous in cells; host or cells: SK-BR-3. Conditions: FIG. 4. On the procedure:
In order to directly measure the binding affinities of agonists and inverse agonists to ERRα, we performed a competitive ERR binding whole cell assay using ERRα-positive SK-BR-3 cells. This method is developed based on the ER binding assay posted by the National Toxicology Program at the NIEHS <<http://iccvam.niehs.nih.gov/methods/endodocs/final/erbndbrd/erbdappx/B1.pdf>>. […] After the cells were washed twice with PBS, 250 μl ethanol will be added to each well for 20 min. Aliquots of ethanol extract was mixed with scintillation liquid for radioactivity measurements. The experiments have been performed in triplicate.
In addition to reporter activity assay, in order to evaluate the interaction of chalcones with ERRα, a competitive binding assay was performed.
Referring to FIG. 4, SK-BR-3 cells, which are positive for ERRα, were incubated with 1 μM of [3H] GEN and increasing concentrations of unlabeled GEN or Compound Nos. 1-9 or 7-5. After 1 h of incubation, the cells were washed with 1× PBS, and [3H] GEN was then extracted from the cells by an incubation of 30 min in 250 μl of ethanol. Values represent the mean±SD.

Turning to `COc1cccc(/C=C/C(=O)c2ccc(O)cc2O)c1OC` [Compound No. 1-9, 2′,4′-Dihydroxy-2,3-dimethoxychalcone], the “Effect on aromatase activity, in-cell assay, MCF-7 aro cells” value in assay [1] is listed as “did not inhibit aromatase activity”. Moreover, on human ERRα-1, the “Rank of potency as antagonist of ERRα among the chalcones” value is reported as “most potent antagonist among these chalcones; also recorded: more potent antagonist of ERRα among these seven chalcones”, the “Antagonism of constitutive activity of ERRα (in words)” value is reported as “antagonists of ERRα” and the concentration for half-maximal inhibition (IC50) stood at 5.7 ± 1.8 µM. Moreover, the “Effect on aromatase activity, in vitro assay” value in assay [2] is on record as “did not inhibit aromatase activity”. The “Inhibition of binding of [3H] labeled genistein (in words)” value on ERRα is “competitively inhibited the binding of [3H] labeled genistein in a dose-dependent manner”.
Consider `O=C(/C=C/c1ccccc1O)c1ccc(O)cc1O` [Compound No. 7-5, 2,2′,4′-Trihydroxychalcone], for which, on human ERRα-1, the “Rank of potency as antagonist of ERRα among the chalcones” value was “more potent antagonist of ERRα among these seven chalcones”, the “Antagonism of constitutive activity of ERRα (in words)” value is recorded as “antagonists of ERRα” and half-maximal inhibition (IC50) required 6.2 ± 1 µM. The “Inhibition of binding of [3H] labeled genistein (in words)” value at ERRα is “competitively inhibited the binding of [3H] labeled genistein in a dose-dependent manner”.

A word on the IC50: it is the point on the concentration scale where inhibition reaches its midpoint. A high value points to lower potency.
